Read-outs that look alike come from different tables or passages of the source.
What was measured:
[1] = tested on: NIH3T3^MEN2A(C634R) cells; test: Reversal of morphologically transformed phenotype, contrast phase microscopy, 24 h; assay type: cell-based, murine; details: 24 h treatment; for minimal effective concentration: Mus musculus, NIH3T3MEN2A, read-out: Morphology a 24 h: concentration from which reversal was observed
Description: (§1) NIH3T3 Murine fibroblasts and the transfected line NIH3T3^MEN2A(C634R) were treated with increasing concentrations of the compounds of the invention for 72 h. Survival curves were obtained by Coulter Counter cell count. IC50s calculated from said curves are reported in Table 9: the higher sensitivity of the oncoprotein-expressing cell line is evident. The reversal of the morphologically transformed phenotype of NIH3T3^MEN2A (C634R) cells in the presence of the compounds of the invention was evaluated by contrast phase microscopy after 24 h treatment and photographically documented.

[2] = biological target: T1, human Ret TKR-catalytic domain (Homo sapiens, UniProt P07949); test: DELFIA Ret Kinase Assay (cell-free); assay type: biochemical
T1 construct: human Ret TKR-catalytic domain; purchased ProQinase
T1 sequence (P07949 724-1016 limits assumed): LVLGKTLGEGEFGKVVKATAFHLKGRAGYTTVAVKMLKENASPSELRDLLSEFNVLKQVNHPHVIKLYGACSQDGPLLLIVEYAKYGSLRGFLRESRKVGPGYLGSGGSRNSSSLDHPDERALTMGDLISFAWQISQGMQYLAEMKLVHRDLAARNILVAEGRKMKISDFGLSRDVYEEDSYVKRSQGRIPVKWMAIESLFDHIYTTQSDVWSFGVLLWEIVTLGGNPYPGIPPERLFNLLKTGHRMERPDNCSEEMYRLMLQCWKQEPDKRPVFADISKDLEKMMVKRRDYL
Description: In order to evidence and quantify inhibitory activity on Ret tyrosine kinase, the most representative compounds of the invention were tested with a dedicated DELFIA kinase assay, using a human tyrosine-kinase receptor (Ret TKR) recombinant form (human Ret TKR-catalytic domain) available from ProQinase as the tyrosine kinase.
After 10 min. incubation at 30° C., the kinase reactions were worked up as in the DELFIA cKit Kinase Assay.

[3] = biological target: T2, Human cKit Tyrosine Kinase Receptor (human cKit RTK-catalytic domain) (Homo sapiens, UniProt P10721); test: DELFIA cKit Tyrosine Kinase Assay (cell-free); assay type: biochemical
T2 construct: human cKit RTK-catalytic domain; purchased Panvera-Invitrogen P3080
Description: The compounds of the invention were tested with a dedicated cell-free kinase assay for the evaluation of the inhibiting activity on tyrosine kinases.
In more detail, the assay was a DELFIA™ (Dissociation Enhanced Time-Resolved Fluorometric Assay) Tyrosine Kinase Assay™ (PerkinElmer), a highly sensitive, reproducible ELISA assay that allows to evaluate the activity of a tyrosine kinase.
Human cKit Tyrosine Kinase Receptor (human cKit RTK-catalytic domain), commercially available from Panvera-Invitrogen (Cat. N^o. P3080), was used as the tyrosine kinase.
After 1 hour incubation at room temperature and three washings with 1×DELFIA Wash Buffer (PerkinElmer), the phosphotyrosine residues of the acceptor were detected with an europium-labelled anti-phosphotyrosine monoclonal antibody (DELFIA Eu-N1 labelled anti-phosphotyrosine antibody PT66, PerkinElmer) and, after a further hour incubation at room temperature and three washings with 1×DELFIA Wash Buffer, overall phosphorylation of biotinylated polyGAT was determined by addition of Enhancement Solution (PerkinElmer) and fluorimetric analysis of the plates (α-Fusion FP HT, PerkinElmer) in the “Time-Resolved Fluorescence” mode.

[4] = tested on: NIH3T3^MEN2A(C634R) cells; test: Survival curves by Coulter Counter cell count, 72 h; assay type: cell-based, murine; details: Mus musculus, NIH3T3MEN2A, 72 h treatment, read-out: Cont at 72 h IC50
Description: as §1

[5] = cell-free DELFIA, 50 ng Ret TKR, 3 μM ATP, 10 min. at 30° C., read-out: IC50
[6] = cell-free DELFIA, 25 ng cKit TKR, 150 μM ATP, 20 minutes at 30° C., read-out: IC50

T2 sequence (P10721 589-937 limits assumed): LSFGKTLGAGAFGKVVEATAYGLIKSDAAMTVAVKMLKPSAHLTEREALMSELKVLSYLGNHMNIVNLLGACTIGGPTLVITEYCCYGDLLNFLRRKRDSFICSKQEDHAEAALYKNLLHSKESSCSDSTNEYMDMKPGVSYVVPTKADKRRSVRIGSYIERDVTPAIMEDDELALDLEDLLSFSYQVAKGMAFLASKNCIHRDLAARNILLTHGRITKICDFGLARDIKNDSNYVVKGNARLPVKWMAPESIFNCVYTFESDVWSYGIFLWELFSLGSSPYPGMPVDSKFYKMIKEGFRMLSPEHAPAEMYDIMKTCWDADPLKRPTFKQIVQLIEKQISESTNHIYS

| Structure (SMILES) | melting point [°C] | IC50 [2, 5] [µM] | IC50 [3, 6] [µM] | other results |
| --- | --- | --- | --- | --- |
| COc1cc2c(cc1OC)/C(=C\c1ccc(OC(=O)NC(C)(C)C)cc1)C(=O)N2 | 238 to 240 | – | – | – |
| COc1ccc(NC(=O)Oc2ccc(/C=C3/C(=O)Nc4cc(OC)c(OC)cc43)cc2)cc1 | 189 to 191 | – | – | – |
| COc1cc2c(cc1OC)/C(=C\c1ccc(OC(=O)N(CCO)CCO)cc1)C(=O)N2 | 183 to 185 | – | – | – |
| CCCCCNC(=O)Oc1ccc(/C=C2/C(=O)Nc3cc(OC)c(OC)cc32)cc1 [A.3, n-Pentyl Carbamic Acid, (E)-4-(5,6-dimethoxy-2-oxo-1,2-dihydro-indol-3-ylidenemethyl)phenyl Ester] | 173 to 175 | 1.78 | 0.38 ± 0.16 | Morphology a 24 h [1]: REVERSAL; minimal effective concentration [1]: ≥ 5 µM; IC50 [4]: 2.2 ± 0.7 µM |
| CCCCCCNC(=O)Oc1ccc(/C=C2/C(=O)Nc3cc(OC)c(OC)cc32)cc1 [A.4, n-Hexyl Carbamic Acid, (E)-4-(5,6-dimethoxy-2-oxo-1,2-dihydro-indol-3-ylidenemethyl)phenyl Ester] | 168 to 170 | 5.73 | 0.135 | – |
| COc1cc2c(cc1OC)/C(=C\c1ccc(OC(=O)N3CCOCC3)cc1)C(=O)N2 [B.2, Morpholine-4-carboxylic Acid, (E)-4-(5,6-dimethoxy-2-oxo-1,2-dihydro-indol-3-ylidenemethyl)phenyl Ester] | 255 to 257 | – | – | – |
| COc1cc2c(cc1OC)/C(=C\c1ccc(OC(=O)N3CCN(CCO)CC3)cc1)C(=O)N2 [B.3, 4-(2-Hydroxyethyl)piperazine-1-carboxylic Acid, (E)-4-(5,6-dimethoxy-2-oxo-1,2-dihydro-indol-3-ylidenemethyl)phenyl Ester] | 217 to 220 | 1.77 | 6.74 | Morphology a 24 h [1]: REVERSAL; IC50 [4]: 3.1 ± 1.3 µM |
| COc1cc2c(cc1OC)/C(=C\c1ccc(OC(=O)N3CCN(CCOCCO)CC3)cc1)C(=O)N2 [B.6, 4-[2-(2-Hydroxyethoxy)ethyl]piperazine-1-carboxylic Acid (E)-4-(5,6-dimethoxy-2-oxo-1,2-dihydro-indol-3-ylidenemethyl)phenyl Ester] | – | 6.65 | 7.47 | Morphology a 24 h [1]: REVERSAL; minimal effective concentration [1]: ≥ 10 µM; IC50 [4]: 5.6 ± 1.8 µM |
| COc1cc2c(cc1OC)/C(=C\c1ccc(OC(=O)N3CCN(c4ccccc4)CC3)cc1)C(=O)N2 [B.7, 4-Phenylpiperazine-1-carboxylic Acid, (E)-4-(5,6-dimethoxy-2-oxo-1,2-dihydro-indol-3-ylidenemethyl)phenyl Ester] | > 260 | 3.23 | 2.78 | – |
| COc1cc2c(cc1OC)/C(=C\c1ccc(OCCO)cc1)C(=O)N2 [D.1, (E) 3-[4-(2-hydroxyetoxy)benzylidene]-5,6-dimethoxy-1,3-dihydro-indol-2-one] | – | 1.12 | 3.63 | Morphology a 24 h [1]: REVERSAL; minimal effective concentration [1]: ≥ 10 µM; IC50 [4]: 4.3 ± 0.6 µM |
| COc1cc2c(cc1OC)/C(=C\c1ccc(OC(C)=O)cc1)C(=O)N2 [E.2, Acetic Acid, (E)-4-(5,6-dimethoxy-2-oxo-1,2-dihydro-indol-3-ylidenemethyl)phenyl Ester] | 189 to 191 | – | – | Morphology a 24 h [1]: REVERSAL; minimal effective concentration [1]: ≥ 5 µM; IC50 [4]: 1.5 ± 0.05 µM |
| COc1cc2c(cc1OC)/C(=C\c1ccc(OC(=O)c3cccnc3)cc1)C(=O)N2 [E.3, Nicotinic Acid, (E)-4-(5,6-dimethoxy-2-oxo-1,2-dihydro-indol-3-ylidenemethyl)phenyl Ester] | 227 to 229 | – | – | – |
| COc1cc2c(cc1OC)/C(=C\c1ccc(OC(=O)Nc3ccccc3)cc1)C(=O)N2 [Example A.1, Phenylcarbamic Acid, (E)-4-(5,6-dimethoxy-2-oxo-1,2-dihydro-indol-3-ylidenemethyl)phenyl Ester] | 201 to 203 | 8.39 | 1.66 | – |
| CCOP(=O)(OCC)Oc1ccc(/C=C2/C(=O)Nc3cc(OC)c(OC)cc32)cc1 [Example C.2, (E)-4-(5,6-dimethoxy-2-oxo-1,2-dihydro-indol-3-ylidenemethyl)phenyl Diethyl Phosphate] | – | – | – | Morphology a 24 h [1]: REVERSAL; minimal effective concentration [1]: ≥ 5 µM; IC50 [2]: 63.5 µM; IC50 [3]: 5.09 µM; IC50 [4]: 1.7 ± 0.1 µM |
| COc1cc2c(cc1OC)/C(=C\c1ccc(OC(=O)c3ccccc3)cc1)C(=O)N2 [Example E.1, Benzoic Acid, (E)-4-(5,6-dimethoxy-2-oxo-1,2-dihydro-indol-3-ylidenemethyl)phenyl Ester] | 228 to 230 | – | – | – |
| CCCCCCCCCC(=O)Oc1ccc(/C=C2/C(=O)Nc3cc(OC)c(OC)cc32)cc1 [Example F.1, n-decanoic Acid, (E)-4-(5,6-dimethoxy-2-oxo-1,2-dihydro-indol-3-ylidenemethyl)phenyl Ester] | 138 to 140 | – | – | – |
| COc1cc2c(cc1OC)/C(=C\c1ccc(OC(=O)CCCCNC(=O)OC(C)(C)C)cc1)C(=O)N2 [Example F.2, 5-tert-Butoxycarbonylamino-pentanoic Acid, (E)-4-(5,6-dimethoxy-2-oxo-1,2-dihydro-indol-3-ylidenemethyl)phenyl Ester] | 101 to 103 | 1.37 | 1.2 | – |
| COc1cc2c(cc1OC)/C(=C\c1ccc(OC(=O)c3cccn3C)cc1)C(=O)N2 [Example F.4, 1-Methyl-1H-pyrrole-2-carboxylic Acid, (E)-4-(5,6-dimethoxy-2-oxo-1,2-dihydro-indol-3-ylidenemethyl)phenyl Ester] | 165 to 167 | – | – | – |
| CCCCCCCCCC(=O)Oc1ccc(/C=C2\C(=O)Nc3cc(OC)c(OC)cc32)cc1 [Example G.1, n-decanoic Acid, (Z)-4-(5,6-dimethoxy-2-oxo-1,2-dihydro-indol-3-ylidenemethyl)phenyl Ester] | 95 to 97 | – | – | – |
| COc1ccc(OC(=O)Oc2ccc(/C=C3\C(=O)Nc4cc(OC)c(OC)cc43)cc2)cc1 [Example H.2, (Z)-4-(5,6-dimethoxy-2-oxo-1,2-dihydro-indol-3-ylidenemethyl)phenyl, 4-methoxyphenyl Carbonate] | – | 4.84 | 0.28 | – |
| COCCOCCOCC(=O)Oc1ccc(/C=C2/C(=O)Nc3cc(OC)c(OC)cc32)cc1 [F.3, [2-(2-Methoxy-ethoxy)-ethoxy]acetic Acid, (E)-4-(5,6-dimethoxy-2-oxo-1,2-dihydro-indol-3-ylidenemethyl)phenyl Ester] | 117 to 119 | 3.79 | 5.08 | – |
| COc1cc2c(cc1OC)/C(=C\c1ccc(OC(=O)c3cnccn3)cc1)C(=O)N2 [F.5, Pyrazine-2-carboxylic Acid, (E)-4-(5,6-dimethoxy-2-oxo-1,2-dihydro-indol-3-ylidenemethyl)phenyl Ester] | > 250 | – | – | – |
| COc1cc2c(cc1OC)/C(=C/c1ccc(OC(=O)CCCCNC(=O)OC(C)(C)C)cc1)C(=O)N2 [G.2, 5-tert-Butoxycarbonylamino-pentanoic Acid, (Z)-4-(5,6-dimethoxy-2-oxo-1,2-dihydro-indol-3-ylidenemethyl)phenyl Ester] | – | 3.45 | 0.77 | – |
| COc1cc2c(cc1OC)/C(=C/c1ccc(OC(=O)c3cccn3C)cc1)C(=O)N2 [G.3, 1-Methyl-1H-pyrrole-2-carboxylic Acid, (Z)-4-(5,6-dimethoxy-2-oxo-1,2-dihydro-indol-3-ylidenemethyl)phenyl Ester] | – | 6.38 | 2.65 | – |

Reference: patent US20050209195A1, “Indolinone derivatives” (Cell Therapeutics Europe S.r.I, priority 2004, published 2005)
